In ChEMBL document CHEMBL1201862, “PubChem BioAssay data set” (2004):
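All cell lines were grown in 96-well plates and treated with compound for 48 hours. GI50: concentration for 50% inhibition of growth.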 The source made the active and inactive calls. Cut-off read from the data, not from the text of the source: active = GI50 up to about 1.1 µM and inactive = higher.

Experiments:
Test in all cases: NCI-60 cell line screen, 48 h
[1] = system: NCI/ADR-RES
[2] = system: SK-MEL-2
[3] = system: NCI-H522
[4] = system: OVCAR-5
[5] = system: HT-29
[6] = system: SK-MEL-5
[7] = system: TK-10
[8] = system: A498
[9] = system: NCI-H460
[10] = system: IGROV-1
[11] = system: NCI-H23
[12] = system: HL-60
[13] = system: SN12C
[14] = system: LOX IMVI
[15] = system: SF-295
[16] = system: UO-31
[17] = system: OVCAR-3
[18] = system: COLO 205
[19] = system: SW-620
[20] = system: 786-0
[21] = system: Hs-578T
[22] = system: ACHN
[23] = system: SNB-19
[24] = system: SK-OV-3
[25] = system: SR
[26] = system: SF-268
[27] = system: HCT-15
[28] = system: OVCAR-8
[29] = system: SK-MEL-28
[30] = system: MDA-MB-435
[31] = system: CCRF-CEM
[32] = system: Malme-3M
[33] = system: HCC 2998
[34] = system: UACC-62
[35] = system: EKVX
[36] = system: NCI-H226
[37] = system: U-251
[38] = system: MCF7
[39] = system: UACC-257
[40] = system: SF-539
[41] = system: RPMI-8226
[42] = system: KM12
[43] = system: K562
[44] = system: BT-549
[45] = system: HCT-116
[46] = system: CAKI-1
[47] = system: A549
[48] = system: DU-145
[49] = system: PC-3
[50] = system: MOLT-4
[51] = system: MDA-MB-231
[52] = system: MDA-N
[53] = system: RXF 393
[54] = system: M14
[55] = system: HOP-62
[56] = system: HOP-92
[57] = system: OVCAR-4
[58] = system: SNB-75
[59] = system: T47D

## O=Cc1ccc(-c2ccc(S(=O)(=O)O)cc2)o1
[1]
  GI50: > 100000 nM (inactive)
[2]
  GI50: > 100000 nM (inactive)
[3]
  GI50: > 100000 nM (inactive)
[4]
  GI50: > 100000 nM (inactive)
[5]
  GI50: > 100000 nM (inactive)
[6]
  GI50: > 100000 nM (inactive)
[7]
  GI50: > 100000 nM (inactive)
[8]
  GI50: > 100000 nM (inactive)
[9]
  GI50: > 100000 nM (inactive)
[10]
  GI50: > 100000 nM (inactive)
[11]
  GI50: > 100000 nM (inactive)
[12]
  GI50: > 100000 nM (inactive)
[13]
  GI50: > 100000 nM (inactive)
[14]
  GI50: > 100000 nM (inactive)
[15]
  GI50: > 100000 nM (inactive)
[16]
  GI50: > 100000 nM (inactive)
[17]
  GI50: > 100000 nM (inactive)
[18]
  GI50: > 100000 nM (inactive)
[19]
  GI50: > 100000 nM (inactive)
[20]
  GI50: > 100000 nM (inactive)
[21]
  GI50: > 100000 nM (inactive)
[22]
  GI50: > 100000 nM (inactive)
[23]
  GI50: > 100000 nM (inactive)
[24]
  GI50: > 100000 nM (inactive)
[25]
  GI50: > 100000 nM (inactive)
[26]
  GI50: > 100000 nM (inactive)
[27]
  GI50: > 100000 nM
[28]
  GI50: > 100000 nM (inactive)
[29]
  GI50: > 100000 nM (inactive)
[30]
  GI50: > 100000 nM (inactive)
[31]
  GI50: > 10000 nM (inactive)
[32]
  GI50: > 100000 nM (inactive)
[33]
  GI50: > 100000 nM (inactive)
[34]
  GI50: > 100000 nM (inactive)
[35]
  GI50: > 100000 nM (inactive)
[36]
  GI50: > 100000 nM (inactive)
[37]
  GI50: > 100000 nM (inactive)
[38]
  GI50: > 100000 nM (inactive)
[39]
  GI50: > 100000 nM (inactive)
[40]
  GI50: > 100000 nM (inactive)
[41]
  GI50: > 100000 nM (inactive)
[42]
  GI50: > 100000 nM (inactive)
[43]
  GI50: > 100000 nM (inactive)
[44]
  GI50: > 100000 nM (inactive)
[45]
  GI50: > 100000 nM (inactive)
[46]
  GI50: > 100000 nM (inactive)
[47]
  GI50: > 100000 nM (inactive)
[48]
  GI50: > 100000 nM (inactive)
[49]
  GI50: > 100000 nM (inactive)
[50]
  GI50: > 100000 nM (inactive)
[51]
  GI50: > 100000 nM (inactive)
[52]
  GI50: > 100000 nM (inactive)
[53]
  GI50: > 100000 nM (inactive)
[54]
  GI50: > 100000 nM (inactive)

## CC(=O)OC1C(C)OC(OC(=O)C2CCC3C(C2)OC2(CC(OC(=O)/C=C/c4ccccc4)C(C)CO2)C32CO2)C(OC2OC(C)C(O)C(OC(C)=O)C2O)C1O (configuration not stated)
[2]
  GI50: < 10 nM (active)
[3]
  GI50: < 10 nM (active)
[4]
  GI50: < 10 nM (active)
[55]
  GI50: < 12 nM (active)
[5]
  GI50: < 10 nM (active)
[6]
  GI50: < 10 nM (active)
[56]
  GI50: < 10 nM (active)
[7]
  GI50: 13.1 nM (active)
[8]
  GI50: 20.5 nM (active)
[9]
  GI50: < 10 nM (active)
[10]
  GI50: < 10 nM (active)
[11]
  GI50: < 10 nM (active)
[12]
  GI50: < 10 nM (active)
[13]
  GI50: < 10 nM (active)
[14]
  GI50: < 10 nM (active)
[15]
  GI50: < 10 nM (active)
[57]
  GI50: < 10 nM (active)
[16]
  GI50: 499 nM (active)
[17]
  GI50: < 10 nM (active)
[18]
  GI50: < 10 nM (active)
[19]
  GI50: < 10 nM (active)
[20]
  GI50: < 10 nM (active)
[21]
  GI50: < 10 nM (active)
[22]
  GI50: < 42.1 nM (active)
[23]
  GI50: < 10 nM (active)
[24]
  GI50: < 10 nM (active)
[25]
  GI50: < 10 nM (active)
[26]
  GI50: < 10 nM (active)
[27]
  GI50: 319 nM
[28]
  GI50: < 10 nM (active)
[29]
  GI50: < 10 nM (active)
[30]
  GI50: < 10 nM (active)
[31]
  GI50: < 10 nM (active)
[32]
  GI50: < 10 nM (active)
[33]
  GI50: < 10 nM (active)
[34]
  GI50: < 10 nM (active)
[35]
  GI50: < 10 nM (active)
[36]
  GI50: < 10 nM (active)
[37]
  GI50: < 10 nM (active)
[38]
  GI50: < 10 nM (active)
[39]
  GI50: < 10 nM (active)
[40]
  GI50: < 10 nM (active)
[41]
  GI50: < 10 nM (active)
[42]
  GI50: < 10 nM (active)
[58]
  GI50: < 10 nM (active)
[43]
  GI50: < 10 nM (active)
[44]
  GI50: < 10 nM (active)
[45]
  GI50: < 10 nM (active)
[46]
  GI50: 245 nM (active)
[47]
  GI50: < 10 nM (active)
[48]
  GI50: < 10 nM (active)
[49]
  GI50: < 10 nM (active)
[50]
  GI50: < 10 nM (active)
[51]
  GI50: < 10 nM (active)
[52]
  GI50: < 10 nM (active)
[59]
  GI50: < 10 nM (active)
[53]
  GI50: < 15.2 nM (active)
[54]
  GI50: < 10 nM (active)
